According to ChEMBL document CHEMBL1201862, “PubChem BioAssay data set” (2004):
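Compound exposure: 48 hours, 5 concentrations, 96-well plates. At the GI50, growth is halved.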 Active and inactive are the calls of the source. No stated cut-off is given here; in the data, active = GI50 up to about 1.1 µM and inactive = higher.

Legend:
Test in all cases: NCI anticancer screen, dose series, 48 h
786-0 = tested on: 786-0
A549 = tested on: A549
ACHN = tested on: ACHN
CAKI-1 = tested on: CAKI-1
COLO 205 = tested on: COLO 205
DU-145 = tested on: DU-145
HOP-62 = tested on: HOP-62
HOP-92 = tested on: HOP-92
KM12 = tested on: KM12
MDA-N = tested on: MDA-N
NCI-H23 = tested on: NCI-H23
OVCAR-4 = tested on: OVCAR-4
OVCAR-8 = tested on: OVCAR-8
RXF 393 = tested on: RXF 393
SNB-19 = tested on: SNB-19
T47D = tested on: T47D
U-251 = tested on: U-251
UACC-257 = tested on: UACC-257
UO-31 = tested on: UO-31
A498 = tested on: A498

SMILES	GI50 (786-0)	GI50 (A549)	GI50 (ACHN)	GI50 (CAKI-1)	GI50 (COLO 205)	GI50 (DU-145)	GI50 (HOP-62)	GI50 (HOP-92)	GI50 (KM12)	GI50 (MDA-N)	GI50 (NCI-H23)	GI50 (OVCAR-4)	GI50 (OVCAR-8)	GI50 (RXF 393)	GI50 (SNB-19)	GI50 (T47D)	GI50 (U-251)	GI50 (UACC-257)	GI50 (UO-31)	GI50 (A498)
O=C(c1ccccc1)c1c(C(F)(F)F)[n+]([O-])c2cc(Cl)c(Cl)cc2[n+]1[O-]	0.502 µM (active)	0.736 µM (active)	0.764 µM (active)	1.58 µM (inactive)	2.93 µM (inactive)	0.45 µM (active)	0.357 µM (active)	7.01 µM (inactive)	0.548 µM (active)	1.79 µM (inactive)	0.565 µM (active)	1.56 µM (inactive)	2.65 µM (inactive)	1.82 µM (inactive)	1.56 µM (inactive)	1.45 µM (inactive)	1.23 µM (inactive)	0.243 µM (active)	1.47 µM (inactive)	–
OC12COc3ccccc3C1Oc1ccccc1C2 (centres undefined)	> 100 µM (inactive)	> 100 µM (inactive)	> 100 µM (inactive)	> 100 µM (inactive)	> 100 µM (inactive)	> 100 µM (inactive)	> 100 µM (inactive)	> 100 µM (inactive)	> 100 µM (inactive)	> 100 µM (inactive)	> 100 µM (inactive)	> 100 µM (inactive)	> 100 µM (inactive)	–	–	> 100 µM (inactive)	> 100 µM (inactive)	> 100 µM (inactive)	> 100 µM (inactive)	> 100 µM (inactive)
CCCCN(CCCC)CCC(O)c1cc2c(Cl)cc(Cl)cc2c2cc(C(F)(F)F)ccc12 (centres undefined)	12.9 µM (inactive)	–	12 µM (inactive)	12.2 µM (inactive)	10.8 µM (inactive)	10.3 µM (inactive)	10 µM (inactive)	1.32 µM (inactive)	–	12.7 µM (inactive)	12.4 µM (inactive)	4.78 µM (inactive)	14.3 µM (inactive)	–	19.1 µM (inactive)	12.8 µM (inactive)	14.4 µM (inactive)	14.5 µM (inactive)	4.2 µM (inactive)	3.59 µM (inactive)
C/C(=N\NC(=S)Nc1ccc(C)cc1)c1nc2cccnc2[nH]1	1.6 µM (inactive)	2.33 µM (inactive)	1.44 µM (inactive)	1.84 µM (inactive)	3.9 µM (inactive)	2.59 µM (inactive)	3.17 µM (inactive)	6.38 µM (inactive)	7.6 µM (inactive)	4.63 µM (inactive)	2.65 µM (inactive)	0.25 µM (active)	3.05 µM (inactive)	–	3.2 µM (inactive)	0.406 µM (active)	1.45 µM (inactive)	2.38 µM (inactive)	0.649 µM (active)	7.71 µM (inactive)
COC(=O)C1Cc2cc3c(cc2C1=O)CCC3 (centres undefined)	> 100 µM (inactive)	> 100 µM (inactive)	> 100 µM (inactive)	> 100 µM (inactive)	> 100 µM (inactive)	> 100 µM (inactive)	> 100 µM (inactive)	–	> 100 µM (inactive)	> 100 µM (inactive)	> 100 µM (inactive)	42.1 µM (inactive)	> 100 µM (inactive)	–	> 100 µM (inactive)	> 100 µM (inactive)	> 100 µM (inactive)	> 100 µM (inactive)	> 100 µM (inactive)	> 100 µM (inactive)
COc1ccc(N(C)S(=O)(=O)c2ccccc2)cc1	> 100 µM (inactive)	> 100 µM (inactive)	> 100 µM (inactive)	> 100 µM (inactive)	> 100 µM (inactive)	> 100 µM (inactive)	> 100 µM (inactive)	–	> 100 µM (inactive)	> 100 µM (inactive)	67.1 µM (inactive)	> 100 µM (inactive)	> 100 µM (inactive)	> 100 µM (inactive)	> 100 µM (inactive)	53.1 µM (inactive)	> 100 µM (inactive)	> 100 µM (inactive)	> 100 µM (inactive)	–
CC(C)(C)OC(=O)Cn1ncn(NC(=O)Cc2ccccc2)c1=O	> 10 µM (inactive)	> 10 µM (inactive)	> 10 µM (inactive)	> 10 µM (inactive)	> 10 µM (inactive)	> 10 µM (inactive)	> 10 µM (inactive)	> 10 µM (inactive)	> 10 µM (inactive)	> 10 µM (inactive)	> 10 µM (inactive)	> 10 µM (inactive)	> 10 µM (inactive)	–	> 10 µM (inactive)	> 10 µM (inactive)	> 10 µM (inactive)	> 10 µM (inactive)	> 10 µM (inactive)	> 10 µM (inactive)
CC(=O)N[C@@H](Cc1ccc(O)cn1)C(=O)NC1CCCCC1	> 100 µM (inactive)	> 100 µM (inactive)	> 100 µM (inactive)	> 100 µM (inactive)	> 100 µM (inactive)	> 100 µM (inactive)	> 100 µM (inactive)	> 100 µM (inactive)	> 100 µM (inactive)	> 100 µM (inactive)	> 100 µM (inactive)	> 100 µM (inactive)	> 100 µM (inactive)	–	> 100 µM (inactive)	> 100 µM (inactive)	> 100 µM (inactive)	> 100 µM (inactive)	> 100 µM (inactive)	> 100 µM (inactive)
CN(C)/C=C/c1nnc([N+](=O)[O-])s1	11.3 µM (inactive)	19.9 µM (inactive)	15.5 µM (inactive)	18.2 µM (inactive)	3.58 µM (inactive)	15.2 µM (inactive)	22.8 µM (inactive)	–	7.73 µM (inactive)	4.28 µM (inactive)	19.3 µM (inactive)	–	17.1 µM (inactive)	14.7 µM (inactive)	26.3 µM (inactive)	15.3 µM (inactive)	17.7 µM (inactive)	14.2 µM (inactive)	15.3 µM (inactive)	32 µM (inactive)
COC(=O)c1ccc2c(c1)CC1(C2)Cc2ccc3c(c2C1)CCC3 (centres undefined)	23.2 µM (inactive)	29.9 µM (inactive)	57 µM (inactive)	0.0543 µM (active)	9.84 µM (inactive)	53.6 µM (inactive)	29.9 µM (inactive)	0.855 µM (active)	12.6 µM (inactive)	3.63 µM (inactive)	57.3 µM (inactive)	0.809 µM (active)	69.2 µM (inactive)	17.7 µM (inactive)	33 µM (inactive)	14.3 µM (inactive)	28.7 µM (inactive)	20.2 µM (inactive)	–	–
CC(CC(=O)N1C2CC3CCC2(CS1(=O)=O)C3(C)C)[Si](C)(C)C (centres undefined)	> 100 µM (inactive)	> 100 µM (inactive)	> 100 µM (inactive)	> 100 µM (inactive)	> 100 µM (inactive)	> 100 µM (inactive)	> 100 µM (inactive)	–	> 100 µM (inactive)	> 100 µM (inactive)	> 100 µM (inactive)	–	> 100 µM (inactive)	> 100 µM (inactive)	> 100 µM (inactive)	> 100 µM (inactive)	> 100 µM (inactive)	> 100 µM (inactive)	> 100 µM (inactive)	–
O=C(O)c1ccc(NNC(=O)c2cccc3c(=O)c4ccccc4[nH]c23)cc1	> 100 µM (inactive)	> 100 µM (inactive)	74.1 µM (inactive)	> 100 µM (inactive)	> 100 µM (inactive)	> 100 µM (inactive)	> 100 µM (inactive)	65 µM (inactive)	> 100 µM (inactive)	> 100 µM (inactive)	> 100 µM (inactive)	> 100 µM (inactive)	> 100 µM (inactive)	> 100 µM (inactive)	> 100 µM (inactive)	31.6 µM (inactive)	80.7 µM (inactive)	> 100 µM (inactive)	89.7 µM (inactive)	–
C=C1C(C[C@@H]2O[C@H]3C[C@H]4O[C@@]5(C[C@@H]6O[C@]7(C[C@H](C)[C@@H]8O[C@@H]9CC(C(O)CO)O[C@@H]9C[C@@H]8O7)C[C@H](C)[C@@H]6O5)C[C@H]4O[C@H]3[C@H](C)[C@H]2O)O[C@@H](CC[C@@H]2O[C@@H](CC[C@@]34CC5O[C@H]6C(O[C@H]7CC[C@H](CC(=O)OC)O[C@@H]7[C@@H]6O3)[C@H]5O4)CC2=C)C[C@H]1C (some centres undefined)	< 0.0001 µM (active)	0.000108 µM (active)	0.000658 µM (active)	0.000286 µM (active)	< 0.0001 µM (active)	< 0.0001 µM (active)	0.000396 µM (active)	–	< 0.0001 µM (active)	< 0.0001 µM (active)	< 0.0001 µM (active)	0.998 µM (active)	0.000209 µM (active)	< 0.0001 µM (active)	0.000304 µM (active)	0.01 µM (active)	< 0.0001 µM (active)	< 0.0001 µM (active)	0.000904 µM (active)	–
COc1cc(/C=C/C(=O)O)ccc1O [FERULATE]	> 100 µM (inactive)	> 100 µM (inactive)	> 100 µM (inactive)	> 100 µM (inactive)	> 100 µM (inactive)	> 100 µM (inactive)	> 100 µM (inactive)	> 100 µM (inactive)	> 100 µM (inactive)	> 100 µM (inactive)	> 100 µM (inactive)	> 100 µM (inactive)	> 100 µM (inactive)	–	> 100 µM (inactive)	> 100 µM (inactive)	> 100 µM (inactive)	> 100 µM (inactive)	> 100 µM (inactive)	–
CC1(O)CCC(C(C)(C)O)CC1 (centres undefined) [TERPIN]	> 100 µM (inactive)	> 100 µM (inactive)	> 100 µM (inactive)	> 100 µM (inactive)	> 100 µM (inactive)	> 100 µM (inactive)	> 100 µM (inactive)	> 100 µM (inactive)	> 100 µM (inactive)	> 100 µM (inactive)	> 100 µM (inactive)	> 100 µM (inactive)	> 100 µM (inactive)	–	> 100 µM (inactive)	> 100 µM (inactive)	> 100 µM (inactive)	> 100 µM (inactive)	> 100 µM (inactive)	> 100 µM (inactive)
